Values after ≈ are worked out from the molar mass of the structure shown. Where two headings read alike, the source gives them in different places.
Assays:
gram positive bacteria = experiment: In vitro anti-bacterial activity assay (broth dilution MIC), gram positive bacteria; assay type: cell-based, S. aureus; settings: 18 h
Source text: (§1) Bacterial infections may be caused by a wide variety of gram positive and gram negative bacteria. Some of the compounds of the invention are useful as antibiotics against organisms which are resistant and/or sensitive to other tetracycline compounds. The antibiotic activity of the tetracycline compounds of the invention may by using the in vitro standard broth dilution method described in Waitz, J. A., CLSI, Document M7-A2, vol. 10, no. 8, pp. 13-20, 2nd edition, Villanova, Pa. (1990).
(§2) The following assay was used to determine the efficacy of the tetracycline compounds against gram positive and gram negative bacteria. 2 mg of each compound was dissolved in 100 μl of DMSO. […] The tetracycline compound solutions were diluted to 50 μL volumes, with a test compound concentration of 0.098 μg/ml. Optical density (OD) determinations were made from fresh log-phase broth cultures of the test strains. Dilutions were made to achieve a final cell density of […] CFU/ml. At OD=1, cell densities for different genera were approximately:
(§3) 50 μl of the cell suspensions were added to each well of microtiter plates. The final cell density was approximately 5×10^5 CFU/ml. These plates were incubated at 35° C. in an ambient air incubator for approximately 18 hours. The plates were read with a microplate reader and were visually inspected when necessary. The MIC was defined as the lowest concentration of the tetracycline compound that inhibits growth. Table 3 includes MIC data for several substituted tetracycline compounds.

in vitro = assay type: cell-based; settings: Chinese hamster, Cytotox. CHO-K1
Experimental: (§4) COS-1 and CHO-K1 cell suspensions were prepared, seeded into 96-well tissue culture treated black-walled microtiter plates (density determined by cell line), and incubated overnight at 37° C., in 5% CO2 and approximately 95% humidity. The following day, serial dilutions of compound were prepared under sterile conditions and transferred to cell plates. Cell/Compound plates were incubated under the above conditions for 24 hours. Following the incubation period, media/compound was aspirated and 50 μl of resazurin (0.042 mg/ml in PBS w/Ca and Mg) is added. The plates were then incubated under the above conditions for 2 hours and then placed in the dark at room temperature for an additional 30 minutes. Fluorescence measurements were taken (excitation 535 nm, emission 590 nm). The IC50 (concentration of compound causing 50% growth inhibition) was then calculated. Table 3 includes IC50 data for several substituted tetracycline compounds.

gram negative bacteria = experiment: In vitro anti-bacterial activity assay (broth dilution MIC), gram negative bacteria; assay type: cell-based, E. coli
Source text: as §1, §2, §3

3T3 fibroblast cells = experiment: In vitro phototoxicity assay (neutral red; UV light-treated vs dark control plates); assay type: cell-based; settings: for Photo Toxicity UV Tox50: UV light 50 minutes; for Photo Toxicity Dark Tox50: dark control plate
Experimental: 3T3 fibroblast cells were harvested and plated at a concentration of 1×10^5 cells/mL and the plates were incubated overnight at 37° C., in 5% CO2 and approximately 95% humidity. On the following day the medium was removed from the plates and replaced with Hanks' Balanced Salt Solution (HBSS). Compound dilutions were made in HBSS and added to the plates. For each compound tested, a duplicate plate was prepared that was not exposed to light as a control for compound toxicity. Plates were then incubated in a dark drawer (for controls), or under UV light (meter reading of 1.6-1.8 mW/cm^2) for 50 minutes. Cells were then washed with HBSS, fresh medium was added, and plates were incubated overnight as described above. The following day neutral red was added as an indicator of cell viability. The plates were then incubated for an additional 3 hours. Cells were then washed with HBSS and blotted on absorbent paper to remove excess liquid. A solution of 50% EtOH, 10% glacial acetic acid was added and after 20 minutes incubation the plate's absorbance at 535 nm was read using a Wallac Victor 5 spectrophotometer. The phototoxicity reflected the difference between the light-treated and control cultures. Table 3 includes phototoxicity (μM) data for several substituted tetracycline compounds.

[1] = Mammalian cytotoxicity assay (resazurin), COS-1 cells; assay type: cell-based; settings: African green monkey, read-out: Cytotox. COS-1
Experimental: as §4

[2] = Staphylococcus aureus, S. aureus MRSA5, read-out: Median MIC's G+ S. aureus MRSA5
[3] = Staphylococcus aureus, S. aureus RN450, read-out: Median MIC's G+ S. aureus RN450
[4] = Streptococcus pneumoniae, S. pneumoniae 157E-Strep, read-out: Median MIC's G+ S. pneumoniae 157E-Strep
[5] = Escherichia coli, 18 h, E. coli D1 209, read-out: Median MIC's G− E. coli D1 209
[6] = Escherichia coli, 18 h, E. coli MG 1655, read-out: Median MIC's G− E. coli MG 1655
[7] = Escherichia coli, ATCC25922, 18 h, E. coli ATCC 25922, read-out: Median MIC's G− E. coli ATCC 25922
[8] = Pseudomonas aeruginosa, 18 h, P. aeruginosa K201 PAO6609, read-out: Median MIC's G− P. aeruginosa K201 PAO6609

Structure (SMILES) | MIC (gram positive bacteria; [2]) | MIC (gram positive bacteria; [3]) | MIC (gram positive bacteria; [4]) | IC50 at 24 h (in vitro) | MIC (gram negative bacteria; [5]) | MIC (gram negative bacteria; [6]) | MIC (gram negative bacteria; [7]) | MIC (gram negative bacteria; [8]) | Photo Toxicity UV Tox50 (3T3 fibroblast cells) | Photo Toxicity Dark Tox50 (3T3 fibroblast cells) | IC50 at 24 h [1]
COCCNC(=O)c1cccc(-c2ccc(O)c3c2C[C@H]2C[C@H]4[C@H](N(C)C)C(O)=C(C(N)=O)C(=O)[C@@]4(O)C(O)=C2C3=O)c1 [L] | 1 µg/mL (≈ 1.69 µM) | 0.06 µg/mL (≈ 0.101 µM) | 0.06 µg/mL (≈ 0.101 µM) | > 15.1 µM | 64 µg/mL (≈ 108 µM) | 32 µg/mL (≈ 54.1 µM) | 8 µg/mL (≈ 13.5 µM) | 64 µg/mL (≈ 108 µM) | >151.25 µM | >151.25 µM | > 15.1 µM
CN(C)[C@@H]1C(O)=C(C(N)=O)C(=O)[C@@]2(O)C(O)=C3C(=O)c4c(O)ccc(-c5cccc(C(=O)NCCN)c5)c4C[C@H]3C[C@@H]12 [N] | 64 µg/mL (≈ 111 µM) | 2 µg/mL (≈ 3.47 µM) | 16 µg/mL (≈ 27.7 µM) | > 46.8 µM | 64 µg/mL (≈ 111 µM) | 64 µg/mL (≈ 111 µM) | 64 µg/mL (≈ 111 µM) | 64 µg/mL (≈ 111 µM) | 95.14 µM | >150.87 µM | > 46.8 µM
CN(C)CCNCc1cccc(-c2ccc(O)c3c2C[C@H]2C[C@H]4[C@H](N(C)C)C(O)=C(C(N)=O)C(=O)[C@@]4(O)C(O)=C2C3=O)c1 [CS] | 8 µg/mL (≈ 13.5 µM) | 0.06 µg/mL (≈ 0.102 µM) | 0.06 µg/mL (≈ 0.102 µM) | > 140 µM | 64 µg/mL (≈ 108 µM) | 2 µg/mL (≈ 3.39 µM) | 4 µg/mL (≈ 6.77 µM) | 64 µg/mL (≈ 108 µM) | >139.98 µM | >139.98 µM | > 140 µM
CN(C)[C@@H]1C(O)=C(C(N)=O)C(=O)[C@@]2(O)C(O)=C3C(=O)c4c(O)ccc(-c5cccc(C(=O)NCCN6CCCCC6)c5)c4C[C@H]3C[C@@H]12 [U] | 8 µg/mL (≈ 12.4 µM) | 0.25 µg/mL (≈ 0.388 µM) | 0.06 µg/mL (≈ 0.0931 µM) | > 41 µM | 8 µg/mL (≈ 12.4 µM) | 4 µg/mL (≈ 6.2 µM) | 4 µg/mL (≈ 6.2 µM) | 64 µg/mL (≈ 99.3 µM) | >132.37 µM | >132.37 µM | > 41 µM
CN(C)CCCNCc1cccc(-c2ccc(O)c3c2C[C@H]2C[C@H]4[C@H](N(C)C)C(O)=C(C(N)=O)C(=O)[C@@]4(O)C(O)=C2C3=O)c1 [CX] | 8 µg/mL (≈ 13.2 µM) | 0.5 µg/mL (≈ 0.827 µM) | 0.25 µg/mL (≈ 0.413 µM) | > 137 µM | 32 µg/mL (≈ 52.9 µM) | 16 µg/mL (≈ 26.5 µM) | 16 µg/mL (≈ 26.5 µM) | 64 µg/mL (≈ 106 µM) | >137.23 µM | >137.23 µM | > 137 µM
CCN(CC)CCCC(C)NC(=O)c1ccc(O)c2c1C[C@H]1C[C@H]3[C@H](N(C)C)C(O)=C(C(N)=O)C(=O)[C@@]3(O)C(O)=C1C2=O (stereo partly shown) [AI] | 64 µg/mL (≈ 107 µM) | 64 µg/mL (≈ 107 µM) | 64 µg/mL (≈ 107 µM) | > 109 µM | 64 µg/mL (≈ 107 µM) | 64 µg/mL (≈ 107 µM) | 64 µg/mL (≈ 107 µM) | 64 µg/mL (≈ 107 µM) | >108.86 µM | >108.86 µM | > 109 µM
CN(C)[C@@H]1C(O)=C(C(N)=O)C(=O)[C@@]2(O)C(O)=C3C(=O)c4c(O)ccc(-c5ccc(NC(=O)CNC(C)(C)C)cc5)c4C[C@H]3C[C@@H]12 [AF] | 4 µg/mL (≈ 6.47 µM) | 0.06 µg/mL (≈ 0.097 µM) | 0.06 µg/mL (≈ 0.097 µM) | > 13.7 µM | 2 µg/mL (≈ 3.23 µM) |  |  |  | >137.36 µM | >137.36 µM | > 13.7 µM
CN(C)[C@@H]1C(O)=C(C(N)=O)C(=O)[C@@]2(O)C(O)=C3C(=O)c4c(O)ccc(C(=O)CN5CCN(C6CCCCC6)CC5)c4C[C@H]3C[C@@H]12 [BU] | 1 µg/mL (≈ 1.61 µM) | 0.13 µg/mL (≈ 0.209 µM) | 0.06 µg/mL (≈ 0.0964 µM) | > 123 µM | 2 µg/mL (≈ 3.21 µM) | 0.5 µg/mL (≈ 0.803 µM) | 1 µg/mL (≈ 1.61 µM) | 64 µg/mL (≈ 103 µM) | >122.93 µM | >122.93 µM | > 123 µM
CN(C)CC(=O)Nc1cccc(-c2ccc(O)c3c2C[C@H]2C[C@H]4[C@H](N(C)C)C(O)=C(C(N)=O)C(=O)[C@@]4(O)C(O)=C2C3=O)c1 [K, (4S,4aS,5aR,12aS)-4-Dimethylamino-7-[3-(2-dimethylamino-acetylamino)-phenyl]-3,10,12,12a-tetrahydroxy-1,11-dioxo-1,4,4a,5,5a,6,11,12a-octahydro-naphthacene-2-carboxylic acid amide] | 2 µg/mL (≈ 3.39 µM) | 0.06 µg/mL (≈ 0.102 µM) | 0.06 µg/mL (≈ 0.102 µM) | > 12.8 µM | 2 µg/mL (≈ 3.39 µM) | 2 µg/mL (≈ 3.39 µM) | 1 µg/mL (≈ 1.69 µM) | 64 µg/mL (≈ 108 µM) | >128.09 µM | >128.09 µM | > 12.8 µM
CN(C)CCNCc1ccc(-c2ccc(O)c3c2C[C@H]2C[C@H]4[C@H](N(C)C)C(O)=C(C(N)=O)C(=O)[C@@]4(O)C(O)=C2C3=O)o1 [CY] | 64 µg/mL (≈ 110 µM) | 0.25 µg/mL (≈ 0.431 µM) | 0.06 µg/mL (≈ 0.103 µM) | > 142 µM | 64 µg/mL (≈ 110 µM) | 2 µg/mL (≈ 3.44 µM) | 4 µg/mL (≈ 6.89 µM) | 64 µg/mL (≈ 110 µM) | >142.02 µM | >142.02 µM | > 142 µM
CC(C)N(C)CC(=O)c1ccc(O)c2c1C[C@H]1C[C@H]3[C@H](N(C)C)C(O)=C(C(N)=O)C(=O)[C@@]3(O)C(O)=C1C2=O [AJ] | 0.5 µg/mL (≈ 0.948 µM) | 0.06 µg/mL (≈ 0.114 µM) | 0.06 µg/mL (≈ 0.114 µM) | > 150 µM | 1 µg/mL (≈ 1.9 µM) | 0.25 µg/mL (≈ 0.474 µM) | 0.25 µg/mL (≈ 0.474 µM) | 32 µg/mL (≈ 60.7 µM) | >149.87 µM | >149.87 µM | > 150 µM

Source: patent US20100022483A1, “Substituted Tetracycline Compounds” (Paratek Pharmaceuticals, Inc., priority 2008, published 2010)
